Assays:
Format in all cases: biochemical
Conditions in all cases: liver microsomes
[1] = biological target: T1, CYP1A2 (HLM) (Homo sapiens, UniProt P05177); assay: cocktail probe-substrate assay, HPLC
T1 sequence (P05177 2-516): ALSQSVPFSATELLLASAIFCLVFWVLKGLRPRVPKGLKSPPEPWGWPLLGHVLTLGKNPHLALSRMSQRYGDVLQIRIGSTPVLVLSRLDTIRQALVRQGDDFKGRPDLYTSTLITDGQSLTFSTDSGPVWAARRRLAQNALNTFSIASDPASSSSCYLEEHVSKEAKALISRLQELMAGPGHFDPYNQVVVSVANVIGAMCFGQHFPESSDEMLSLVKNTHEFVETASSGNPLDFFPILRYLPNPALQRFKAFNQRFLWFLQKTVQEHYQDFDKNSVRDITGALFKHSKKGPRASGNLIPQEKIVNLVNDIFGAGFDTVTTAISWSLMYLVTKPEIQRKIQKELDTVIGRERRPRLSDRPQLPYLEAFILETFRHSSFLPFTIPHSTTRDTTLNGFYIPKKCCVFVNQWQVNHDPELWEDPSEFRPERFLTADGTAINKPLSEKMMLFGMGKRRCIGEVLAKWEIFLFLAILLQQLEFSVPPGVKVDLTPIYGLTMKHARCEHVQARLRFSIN

[2] = biological target: CYP2E1 (HLM) (Homo sapiens, UniProt P05181); assay: cocktail probe-substrate assay, HPLC
CYP2E1 (HLM), sequence (P05181 whole entry): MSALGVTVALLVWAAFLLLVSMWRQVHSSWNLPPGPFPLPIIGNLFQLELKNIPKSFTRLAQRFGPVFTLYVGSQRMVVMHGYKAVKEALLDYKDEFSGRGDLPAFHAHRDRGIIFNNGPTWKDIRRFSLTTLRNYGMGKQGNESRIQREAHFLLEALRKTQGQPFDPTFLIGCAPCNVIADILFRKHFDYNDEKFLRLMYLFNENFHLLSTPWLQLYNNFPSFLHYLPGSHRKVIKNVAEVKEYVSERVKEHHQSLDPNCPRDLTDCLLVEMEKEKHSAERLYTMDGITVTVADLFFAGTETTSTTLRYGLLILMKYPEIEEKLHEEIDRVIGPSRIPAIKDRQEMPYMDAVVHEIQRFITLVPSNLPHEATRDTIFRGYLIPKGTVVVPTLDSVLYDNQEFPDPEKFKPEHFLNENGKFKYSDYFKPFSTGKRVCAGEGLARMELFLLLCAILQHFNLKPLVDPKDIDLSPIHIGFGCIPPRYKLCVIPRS

[3] = biological target: T2, CYP2C9 (HLM) (Homo sapiens, UniProt P11712); assay: cocktail probe-substrate assay, HPLC
T2 sequence (P11712 whole entry): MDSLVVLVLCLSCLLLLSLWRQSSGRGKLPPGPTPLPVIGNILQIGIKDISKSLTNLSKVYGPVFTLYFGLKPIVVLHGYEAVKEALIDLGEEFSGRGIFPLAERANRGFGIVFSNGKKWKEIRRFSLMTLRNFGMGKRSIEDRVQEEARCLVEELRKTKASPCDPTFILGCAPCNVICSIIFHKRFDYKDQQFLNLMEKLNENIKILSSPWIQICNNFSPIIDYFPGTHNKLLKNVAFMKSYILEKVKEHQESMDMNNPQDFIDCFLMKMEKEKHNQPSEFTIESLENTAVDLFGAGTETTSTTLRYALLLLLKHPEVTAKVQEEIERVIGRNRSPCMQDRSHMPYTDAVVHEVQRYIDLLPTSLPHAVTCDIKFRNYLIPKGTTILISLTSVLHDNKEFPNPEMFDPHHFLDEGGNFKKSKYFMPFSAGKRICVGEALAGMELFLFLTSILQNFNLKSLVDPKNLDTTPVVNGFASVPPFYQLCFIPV

[4] = biological target: T2, CYP2C9 (HLM); assay: HPLC-UV of 4-hydroxytolbutamide
[5] = biological target: T3, CYP2D6 (HLM) (Homo sapiens, UniProt P10635); assay: cocktail probe-substrate assay, HPLC
T3 sequence (P10635 whole entry): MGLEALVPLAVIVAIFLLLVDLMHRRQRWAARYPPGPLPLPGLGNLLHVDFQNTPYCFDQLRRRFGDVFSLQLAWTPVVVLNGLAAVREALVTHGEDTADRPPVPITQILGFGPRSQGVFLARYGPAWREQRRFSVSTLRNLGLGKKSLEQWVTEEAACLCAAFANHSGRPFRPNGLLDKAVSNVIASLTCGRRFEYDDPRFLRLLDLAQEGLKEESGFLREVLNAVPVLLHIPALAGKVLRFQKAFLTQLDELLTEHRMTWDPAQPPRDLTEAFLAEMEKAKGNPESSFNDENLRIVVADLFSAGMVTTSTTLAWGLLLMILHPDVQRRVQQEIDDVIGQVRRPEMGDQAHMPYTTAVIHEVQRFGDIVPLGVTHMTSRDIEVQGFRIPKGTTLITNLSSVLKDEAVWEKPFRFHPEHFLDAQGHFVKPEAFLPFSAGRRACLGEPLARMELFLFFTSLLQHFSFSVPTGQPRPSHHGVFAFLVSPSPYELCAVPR

[6] = biological target: CYP3A4 (HLM) (Homo sapiens, UniProt P08684); assay: cocktail probe-substrate assay, HPLC
CYP3A4 (HLM), sequence (P08684 2-503): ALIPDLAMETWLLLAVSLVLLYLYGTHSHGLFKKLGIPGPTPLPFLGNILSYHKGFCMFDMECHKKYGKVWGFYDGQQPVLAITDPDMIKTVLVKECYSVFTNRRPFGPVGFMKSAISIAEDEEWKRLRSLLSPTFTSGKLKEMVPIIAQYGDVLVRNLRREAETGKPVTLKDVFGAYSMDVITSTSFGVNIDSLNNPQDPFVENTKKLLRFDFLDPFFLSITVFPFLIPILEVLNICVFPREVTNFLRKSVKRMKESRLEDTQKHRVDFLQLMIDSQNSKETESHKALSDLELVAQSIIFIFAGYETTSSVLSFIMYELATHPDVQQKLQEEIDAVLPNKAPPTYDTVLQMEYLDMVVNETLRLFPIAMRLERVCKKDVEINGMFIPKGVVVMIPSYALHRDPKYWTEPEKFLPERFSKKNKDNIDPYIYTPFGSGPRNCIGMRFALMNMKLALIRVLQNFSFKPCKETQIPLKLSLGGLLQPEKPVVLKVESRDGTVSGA

[7] = biological target: T3, CYP2D6 (HLM); assay: HPLC-MS/MS of alpha-hydroxymetoprolol

For `COc1cc2c(cc1OC)-c1cc3ccc4c(c3c[n+]1CC2)OCO4` [Epiberberine], the IC50 [1] was > 100 µM, the IC50 [2] was 66.3 µM and the IC50 [3] was 8.18 µM. The Ki [4] was 5.64 µM, the IC50 [5] was 11.9 µM and the IC50 [6] was 81.5 µM. For the same compound, the Ki [7] was 25.4 µM.

Reference: paper PMC5749554 (Drug Design, Development and Therapy, 2017)
